In patent US12357695B2, “Peptides and nanoparticles for intracellular delivery of molecules” (AADIGEN, LLC, priority 2019, dated 2025):
Square brackets hold non-standard residues; d marks the D form. Ends that are not written are not given here. Stearyl = stearyl group covalently linked to the N-terminus; βAla = NCCC(=O)O

Experiments:
mice = test: In vivo delivery of Luciferase mRNA, intravenous administration, bioluminescence imaging; settings: 5 μg Luc mRNA; for mRNA / luciferase expression and tissues: single dose
Experimental: FIGS. 4A-4D show the potency of ADGN-peptide variants for in vivo delivery of Luciferase mRNA via intravenous administration in mice. ADGN-peptide/luc mRNA particles containing 5 μg mRNA were formed in sterile water, and then diluted in 5% sucrose. Mice received IV injection of 100 μl ADGN-peptide/mRNA complexes. mRNA LUC expression was monitored by bioluminescence imaging after 12 h, 24 h, 48 h and 72 h. FIG. 4B show bioluminescence imaging at 24 hr in control and treated groups. Semi-quantitative data of luciferase signal in the liver (C) and in the lung (D) were obtained using the manufacturer's software (Living Image; PerkinElmer). Results were then expressed as values relative to day 0.
Stable ADGN-peptides/mRNA were evaluated for in vivo delivery of Luciferase mRNA via intravenous and intramuscular administrations. Animals were treated with single dose of 5 moU modified Luc mRNA of 5 μg. 5 moU modified Luc mRNA (5 μg) in sterile water (GIBCO) were mixed with ADGN peptide (sterile water), volume for each sample was adjusted to 100 μl, with sterile water containing 5% Sucrose. Samples were mixed gently with vortex for 1 minute at low speed and incubated for 30 min at room temperature. Samples were filtered on 0.45 μm PES filters prior administration. For IV administration Mice received 100 μl intravenous (IV) injection of either ADGN-106/mRNA, ADGN-100/mRNA, ADGN-106RI/mRNA, ADGN-100-stearyl/mRNA, ADGN-100Hydro1/mRNA, ADGN-100Hydro2 or ADGN/mRNA complexes containing 10% of ADGN-100PEG (3 animals per group). As control, mice from group 3 (2 animals per group) received IV injection of 100 μl of naked 5 moU modified Luc mRNA (5 μg). For IM administration, mice received 25 μl (5 μg mRNA) IV injection of either ADGN-100/mRNA, ADGN-106/mRNA, ADGN-106RI/mRNA or ADGN/mRNA complexes containing 10% or 20% of ADGN-100PEG (2 animals per group). As control, mice from group 3 (2 animals per group) received IV injection of 25 μl of naked 5 moU modified Luc mRNA (5 μg).
mRNA Luc expression was monitored by bioluminescence. Bioluminescence imaging was performed after 12, 24, 48 and 72 hrs. Mice received an i.p. injection of 150 μg/g luciferin for noninvasive bioluminescence imaging (IVIS Kinetic; PerkinElmer, Waltham, MA, USA).

293T cells = test: Cellular delivery of Luciferase mRNA, luciferase expression at 72 hrs; assay type: cell-based; settings: 0.25 μg Luc mRNA; for reduction of efficiency / luciferase expression after serum treatment: complexes incubated 3 hrs in 25% serum prior transfection; for reduction of efficiency / luciferase expression after heparan sulfate treatment: complexes incubated 3 hrs with heparan sulfate prior transfection; for luciferase expression: absence of serum or heparan sulfate treatment
Experimental: FIGS. 1A-1C show luciferase expression in 293T cells treated with ADGN-peptide/mRNA complexes. 293T cells cultured in 48 well plates were transfected with ADGN-peptide nanoparticles. ADGN-100, ADGN-106, ADGN-100RI, ADGN-106RI, ADGN-100 Stearyl, ADGN-Hydro1, ADGN-Hydro2, ADGN-Hydro3, ADGN-Hydro4, ADGN-Hydro5, ADGN-Hydro6 and ADGN-peptide/ADGN-100PEG 10% nanoparticles containing 0.25 μg mRNA were formed in sterile water, diluted in sterile water containing 5% Sucrose and filtered with 0.45 μm PES filters. ADGN/mRNA complexes were incubated for 3 hrs in the presence of either 25% serum or heparan sulfate prior transfection. Luciferase expression was monitored 72 hours post transfection and results were reported as RLU (luminescence):mg of protein.
Complex formation with mRNA. The following protocols were used for the transfection of 2-5 106 Cells or Cells at confluency of about 70-80% cultured in 24 well plates. ADGN peptide/mRNA particles were prepared at a 20:1 molar ratio of ADGN-Peptide/mRNA. using (0.25 μg) mRNA. Luc mRNA (0.25 μg) was diluted in 20 μl of sterile water (GIBCO) at room temperature. 5 μl Final Peptide Solution was added to obtain a total volume of 20 μl. The volume was adjusted to 50 μl with sterile water and was mixed gently with vortex 1 min low speed and incubated 30 min at room temperature. Then the volume was made up to 100 μl by adding sterile water containing 5% sucrose, and the solution was mixed gently with vortex 1 min low speed and incubate 5 min at 37° C. and then was proceeded to cell transfection.
Transfection protocol. Protocol is reported for 24 well plate format. Cells were cultured in Dulbecco's Modified Eagle's Medium (DMEM), supplemented with 2 mM glutamine, 1% antibiotics (streptomycin 10,000 μg/mL, penicillin, 10,000 IU/mL) and 10% (w/v) foetal calf serum (FCS), at 37° C. in a humidified atmosphere containing 5% CO2. 24 well plates seeded with 150,000 cells the day prior to transfection were grown to 50-60% confluence and set up to be at about 70% confluences at the time of transfection. Before transfection, cells were washed twice with DMEM. Cells were then overlaid with 0.1 ml of ADGN-peptide/cargo complex solution containing 0.25 μg mRNA, 0.15 μg plasmid DNA or 10-25 nM siRNA, mixed gently, and incubated for 10 min at 37° C. 0.2 mL of fresh DMEM, were added and cells were incubated for 20 min at 37° C. 1 mL of complete DMEM containing 15% FCS were then added in order to reach a final FCS concentration of 10%, without removing the overlay of ADGN-peptide/cargo complexes. Cells were returned to the incubator (37° C., 5% CO2) and 72 hrs post transfection.
ADGN-peptides were evaluated for cellular delivery of Luciferase mRNA in 293T cells. A single dose of mRNA of 0.25 μg was evaluated. Luc mRNA (0.25 μg) in sterile water (GIBCO) were mixed with ADGN-100, ADGN-100RI, ADGN-106, ADGN-106RI, ADGN-100 Stearyl, ADGN-Hydro1, ADGN-Hydro2, ADGN-Hydro5 and ADGN-Hydro6. ADGN-peptide/mRNA complexes were filtered with 0.45 μm PES filter. In order to evaluate the stability of the ADGN/mRNA complexes in high serum and cell culture conditions, the complexes were incubated for 3 hrs in the presence of either 25% serum or heparan sulfate prior transfection, then 293T cells were transfected and Luciferase expression was monitored at 72 hrs.
ADGN-106 peptides containing YIGSR targeting sequence were evaluated for cellular delivery of Luciferase mRNA in 293T cells. A single dose of mRNA of 0.25 μg was evaluated. Luc mRNA (0.25 μg) in sterile water (GIBCO) were mixed with ADGN-106 and ADGN-106Hydro variant. ADGN-peptide/mRNA complexes were filtered with 0.45 μm PES filter. The ADGN-106/mRNA complexes were incubated for 3 hrs in the presence of 25% serum prior transfection, then 293T cells were transfected and Luciferase expression was monitored at 72 hrs.

[1] = absence of serum or heparan sulfate

| Substance | mRNA / luciferase expression and tissues (mice) | reduction of efficiency / luciferase expression by modification or linker vs unmodified ADGN peptide (293T cells; [1]) | reduction of efficiency / luciferase expression after serum treatment (293T cells) [%] | reduction of efficiency / luciferase expression after heparan sulfate treatment (293T cells) [%] | increase of luciferase expression / efficiency relative to ADGN-106 (mice; all / different tissues) [fold] | luciferase expression (293T cells) | potency relative to ADGN-100 (293T cells; [1]) [fold] | efficiency relative to ADGN-100 (mice) [folds] | efficiency relative to ADGN-100 stearyl (mice) [folds] |
| --- | --- | --- | --- | --- | --- | --- | --- | --- | --- |
| Ac-GYVS-(G)4-KWRSALWRWRLWRVRSWSR-NH2 (Ac-GYVSGGGGKWRSALWRWRLWRVRSWSR-NH2) [ADGN-100 hydro-2] | negligible luciferase expression | – | – | – | – | – | – | – | – |
| Stearyl-βA-KWRSALWRWRLWRVRSWSR-NH2 (Stearyl-[βAla]KWRSALWRWRLWRVRSWSR-NH2; not fully specified; printed as Stearyl-βA-KWRSALWRWRLWRVRSWSR-NH2) [ADGN-100 Stearyl] | mainly observed in the liver and at lower level in the lung and the kidney | not significantly affected | – | – | – | – | – | – | – |
| akwllrwlsrwlrwlarwlr ([dA][dK][dW][dL][dL][dR][dW][dL][dS][dR][dW][dL][dR][dW][dL][dA][dR][dW][dL][dR]; also: retro-inverso) [ADGN-106-RI] | mainly observed in the liver and at lower level in the lung and the kidney | did not modify | 26 | 13 | 2 | – | – | – | – |
| rswsrvrwlrwrwgasrwk ([dR][dS][dW][dS][dR][dV][dR][dW][dL][dR][dW][dR][dW]G[dA][dS][dR][dW][dK]; also: retro-inverso) [ADGN-100-RI] | – | did not modify | 40 | 16 | – | – | – | – | – |
| βAKWRSAGWRWRLW RVRSWSR (AKWRSAGWRWRLWRVRSWSR; N-terminal beta-alanine; VARIANT 1 beta-A) [ADGN-100] | mainly observed in the liver and at lower level in the lung and the kidney | – | 90 | 50 | – | high level of luciferase expression | – | – | – |
| βALWRALWRLWRSLWRLLWKA ([βAla]LWRALWRLWRSLWRLLWKA) [ADGN-106] | mainly observed in the liver and at lower level in the lung and the kidney | – | – | 50 | – | high level of luciferase expression | 2 | 4 | 2 |
